Consider 7 compounds from patent US8168659B2, “1, 5-diphenyl-3-benzylamino-1, 5-dihydropyrrolidin-2-one as CB1 receptor modulators” (Eli Lilly and Company, priority 2006, dated 2012).

Data set [1] concerns the target T1, hCB1 (Homo sapiens, UniProt P21554). Briefly: hCB1 SPA GTPγ35S Sf9 membranes, antagonist. In kind it is biochemical. Further details: purchased Applied Cell Sciences, Gaithersburg, Md; PerkinElmer Life Sciences, Boston, Mass; host or cells: Sf9 insect cells (recombinant expression), membranes. Conditions: hCB1 SPA GTPγ35S Sf9 Mem 22.7 ug protein/well Antagonist; read-out: Inverse Agonist Potency CB1 (Kb). The method, then: (§1) Antibody-Capture SPA GTP-γ-^35S Binding
(§2) Test exemplified compounds. Measure GTP-γ^35S binding in a 96 well format using a modified antibody capture technique previously described (DeLapp et al. 1999). […] Perform antagonist dose responses in the presence of a saturating dose of full agonist (methanandamide). Add a mixture containing 0.27% Nonidet P40 detergent (Roche, Indianapolis, Ind.), anti-Gi antibody (final dilution of 1:300; Covance, Princeton, N.J.), and 1.25 mg anti-rabbit antibody scintillation proximity assay beads (GE Healthcare, Piscataway, N.J.) and seal the plates and incubate for an additional 3 hours. Centrifuge the plates at 700×g for 10 minutes using a Beckman GS-6R centrifuge and count for 1 minute per well using a Wallac MicroBeta TriLux scintillation counter (PerkinElmer, Boston, Mass.).
(§3) To analyze data, first subtract background from all wells. Determine percent agonist efficacy by normalizing agonist/inverse agonist dose response data to a full agonist (methanandamide) response. Calculating antagonist percent inhibition data by normalizing to results generated with a saturating concentration of methanandamide. Analyze the data using a 4-parameter logistic reduced fit with Activity Base and XLFit3 (IDBS, Emeryville, Calif.). Determine Kb values using a modification of the Cheng-Prusoff relationship: Kb=IC50/(1+[agonist]/EC50) where IC50 is determined from a four parameter fit of displacement curves, [agonist]=EC50 of full agonist, and EC50 is determined from a four parameter fit of a full agonist concentration response curve (Cheng and Prusoff 1973). Calculate mean Kb values as a mean of at least three independent determinations±standard error of the mean (SEM).

The next data set is described as follows: Bioavailability rat. The class given is in vivo. The source says: (§4) Methods for accessing bioavailabilty are well appreciated in the art. One such reference is Medicinal Research Reviews Vol 21 No. 5 382-396 (2001).
The target in data set [2] is T2, Human CB2 (Homo sapiens, UniProt P34972).
T2 construct: purchased Applied Cell Sciences, Gaithersburg, Md; PerkinElmer Life Sciences, Boston, Mass; host or cells: Sf9 insect cells (recombinant expression), membranes
T2 sequence (P34972 whole entry): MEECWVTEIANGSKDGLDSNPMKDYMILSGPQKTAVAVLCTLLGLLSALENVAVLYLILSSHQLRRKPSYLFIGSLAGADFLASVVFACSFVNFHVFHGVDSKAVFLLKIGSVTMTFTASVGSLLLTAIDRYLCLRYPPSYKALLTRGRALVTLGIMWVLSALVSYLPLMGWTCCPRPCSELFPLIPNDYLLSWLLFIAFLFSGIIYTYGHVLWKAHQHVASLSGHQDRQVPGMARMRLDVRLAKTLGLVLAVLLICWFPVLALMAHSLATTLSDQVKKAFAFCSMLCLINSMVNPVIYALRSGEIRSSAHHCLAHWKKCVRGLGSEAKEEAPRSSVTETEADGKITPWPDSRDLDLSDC
Briefly: Agonist GTP-binding, Sf9 membranes. In kind it is biochemical. The method, then:
as §1
Test exemplified compounds. Measure GTP-γ^35S binding in a 96 well format using a modified antibody capture technique previously described (DeLapp et al. 1999). Briefly incubate, CHO or Sf9 cell membranes expressing CB1 or CB2, respectively (Applied Cell Sciences, Gaithersburg, Md.; PerkinElmer Life Sciences, Boston, Mass.); prepare as previously described (DeLapp et al., 1999), exemplified compounds and […] GTP-γ-^35S (PerkinElmer Life Sciences, Boston, Mass.) for 30 minutes (incubate all at room temperature) in GTP-binding assay buffer (20 mM Hepes, 100 mM NaCl, 5 mM MgCl2, pH 7.4). Perform antagonist dose responses in the presence of a saturating dose of full agonist (methanandamide). […]
To analyze data, first subtract background from all wells. […] Determine Kb values using a modification of the Cheng-Prusoff relationship: Kb=IC50/(1+[agonist]/EC50) where IC50 is determined from a four parameter fit of displacement curves, [agonist]=EC50 of full agonist, and EC50 is determined from a four parameter fit of a full agonist concentration response curve (Cheng and Prusoff 1973). […]

The next data set has as its system NIH-Swiss mice. Nature of the data set: Forced swim test (FST). In kind it is in vivo. Conditions: minimum effective dose, decrease in immobility time. On the procedure:
Receive NIH male Swiss mice (Harlan Sprague-Dawley, weigh 20-25 g) 7-10 days prior to testing. House 12 mice/cage. Test animals that weigh 25-30 g. On the day of test, bring animals to the testing room at least 1 hr prior to dosing, when doing starts, 6-8 min. intervals between each dosing with mouse receiving either vehicle or exemplified compounds by p.o., and then put it into a clean cage afterwards (4 mice/cage). Depending on pretreatment time, start the test accordingly.
Mice FST: Place NIH-Swiss mice in clear plastic cylinders (diameter: 10 cm; height: 25 cm) filled to 6 cm with 22-25° C. water for six min. Record the duration of immobility during the last 4 min. of the six-minute trial. A mouse is regarded as immobile when floating motionless or making only those movements necessary to keep its head above the water.
Copy the data-immobility (second) into JMP data sheet, and analyze by ANOVA-Dunnett's test. Record the minimum effective dose (MED) as the lowest dose of compound at which statistically significant decrease in immobility time is observed versus a vehicle control.

For data set [3], the target named is T1, hCB1. Briefly: Antibody-capture SPA GTP-γ-35S binding, antagonist/inverse agonist, CHO cell membranes. The class given is biochemical. On the procedure:
as §1
(§5) Test exemplified compounds. Measure GTP-γ^35S binding in a 96 well format using a modified antibody capture technique previously described (DeLapp et al. 1999). Briefly incubate, CHO or Sf9 cell membranes expressing CB1 or CB2, respectively (Applied Cell Sciences, Gaithersburg, Md.; PerkinElmer Life Sciences, Boston, Mass.); prepare as previously described (DeLapp et al., 1999), exemplified compounds and […] GTP-γ-^35S (PerkinElmer Life Sciences, Boston, Mass.) for 30 minutes (incubate all at room temperature) in GTP-binding assay buffer (20 mM Hepes, 100 mM NaCl, 5 mM MgCl2, pH 7.4). Perform antagonist dose responses in the presence of a saturating dose of full agonist (methanandamide). Add a mixture containing 0.27% Nonidet P40 detergent (Roche, Indianapolis, Ind.), anti-Gi antibody (final dilution of 1:300; Covance, Princeton, N.J.), and 1.25 mg anti-rabbit antibody scintillation proximity assay beads (GE Healthcare, Piscataway, N.J.) and seal the plates and incubate for an additional 3 hours. Centrifuge the plates at 700×g for 10 minutes using a Beckman GS-6R centrifuge and count for 1 minute per well using a Wallac MicroBeta TriLux scintillation counter (PerkinElmer, Boston, Mass.).
as §3
(In general: Binding of GTPγS marks nucleotide exchange on a G protein.)

Another data set concerns the target T3, Rat CB1 (Rattus norvegicus, UniProt P20272).
T3 construct: purchased Applied Cell Sciences, Gaithersburg, Md; PerkinElmer Life Sciences, Boston, Mass; host or cells: CHO cells (recombinant expression), membranes
The data set is described as above. The class given is biochemical. On the procedure:
as §1, §5, §3

The target of data set [4] is T2, Human CB2. Briefly: Antibody-capture SPA GTP-γ-35S binding, antagonist/inverse agonist, Sf9 cell membranes. The class given is biochemical. On the procedure: as §1, §5, §3
The next data set is described as follows: Bioavailability dog. In kind it is in vivo.
Excerpt: as §4

Data set [5] concerns the target T1, hCB1. Nature of the data set: Agonist GTP-binding, Sf9 membranes. In kind it is biochemical. More on the design: purchased Applied Cell Sciences, Gaithersburg, Md; PerkinElmer Life Sciences, Boston, Mass; host or cells: Sf9 insect cells (recombinant expression), membranes. On the procedure:
as §1, §2, §3

Where [6] appears, read: Antibody-capture SPA GTP-γ-35S binding, human CB2, read-out: Inverse Agonist Potency CB2 (Kb).

Counter-ions that a name gives are not always drawn. Like-named read-outs stand apart in the source and are kept apart here.

T1 sequence (P21554 whole entry): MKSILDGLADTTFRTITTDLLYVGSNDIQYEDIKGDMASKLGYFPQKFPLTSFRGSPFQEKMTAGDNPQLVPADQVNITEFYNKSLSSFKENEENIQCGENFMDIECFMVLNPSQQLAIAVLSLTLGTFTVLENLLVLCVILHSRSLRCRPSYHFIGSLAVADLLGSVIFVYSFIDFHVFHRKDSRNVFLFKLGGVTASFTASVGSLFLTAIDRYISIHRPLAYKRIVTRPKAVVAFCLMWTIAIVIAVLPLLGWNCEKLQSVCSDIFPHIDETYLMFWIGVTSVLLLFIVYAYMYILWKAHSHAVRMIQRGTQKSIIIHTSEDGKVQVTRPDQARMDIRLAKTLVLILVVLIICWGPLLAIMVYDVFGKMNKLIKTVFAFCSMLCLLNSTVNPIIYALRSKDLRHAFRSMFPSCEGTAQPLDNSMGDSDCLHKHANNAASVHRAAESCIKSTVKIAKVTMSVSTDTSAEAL
T3 sequence (P20272 whole entry): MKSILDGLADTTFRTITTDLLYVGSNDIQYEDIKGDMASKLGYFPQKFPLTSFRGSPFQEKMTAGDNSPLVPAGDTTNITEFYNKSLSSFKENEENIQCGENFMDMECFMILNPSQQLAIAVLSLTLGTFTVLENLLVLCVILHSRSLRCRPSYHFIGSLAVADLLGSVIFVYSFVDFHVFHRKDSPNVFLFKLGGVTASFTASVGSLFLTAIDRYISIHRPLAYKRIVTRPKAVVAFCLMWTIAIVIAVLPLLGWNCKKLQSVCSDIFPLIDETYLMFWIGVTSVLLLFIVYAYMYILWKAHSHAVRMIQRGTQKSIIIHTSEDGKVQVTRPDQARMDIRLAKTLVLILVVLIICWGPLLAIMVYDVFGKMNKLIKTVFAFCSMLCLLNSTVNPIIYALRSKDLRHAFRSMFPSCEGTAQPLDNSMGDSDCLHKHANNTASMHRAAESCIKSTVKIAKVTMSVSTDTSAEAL

`CC(C)(N[C@@H]1C[C@H](c2ccccc2)N(c2ccc(OC(F)(F)F)cc2)C1=O)c1ccc(C(F)(F)F)nc1.Cc1ccc(S(=O)(=O)O)cc1` [Example 49, (3R,5R)-3-[1-Methyl-1-(6-trifluoromethyl-pyridin-3-yl)-ethylamino]-5-phenyl-1-(4-trifluoromethoxy-phenyl)-pyrrolidin-2-one tosylate]: the Kb at hCB1 [1] was 2.6 nM; on hCB1 [3] (Human CB1 (CHO cells), GTP binding, mean ± SEM, read-out: Inverse Agonist Potency [Kb (nM)]), 0.226 ± 0.01 nM; at Rat CB1 (Rat CB1 (CHO cells), GTP binding, mean ± SEM, read-out: Inverse Agonist Potency [Kb (nM)]) it was 0.264 ± 0.02 nM; at Human CB2 [4] (Human CB2 (Sf9 cells), GTP binding, mean ± SEM, read-out: Inverse Agonist Potency [Kb (nM)]), 587 ± 191 nM. Moreover, the “Bioavail. Rat” value in the data set “Bioavailability rat” is given as 36%. The “Agonist Efficacy %” value at Human CB2 [2] (normalized to full agonist methanandamide) is 0%; at hCB1 [5] (Human CB1, Sf9 membranes, normalized to full agonist methanandamide), −38.3 ± 1.0%. Besides, the EC50 is above 10000 nM on Human CB2 [2] (read-out: Agonist Potency EC50) and 0.81 ± 0.19 nM at hCB1 [5] (Human CB1, Sf9 membranes, read-out: Agonist Potency EC50). For the same compound, the “Forced Swim Test (MED, mg/kg, po)” value in the data set with NIH-Swiss mice is 3 mg/kg. Also, the “CB1 antagonism/inverse agonism, in words” value on hCB1 [3] (human CB1 receptors) and on Rat CB1 (rat CB1 receptors) was “potent” each time. The “CB2 antagonism, in words” value on Human CB2 [4] (human CB2 receptors) was “low antagonism”. Further, the “Bioavail. Dog” value in the data set “Bioavailability dog” stood at 40%. Moreover, the “agonist efficacy at the human CB1 receptor (inverse agonism), in words” value at hCB1 [5] (human CB1, basal constitutive activity) is reported as “less than zero”.

As for `CC(C)(N[C@@H]1C[C@H](c2cccc(OC(F)(F)C(F)F)c2)N(c2ccc(Cl)cc2)C1=O)c1ccc(C(F)(F)F)nc1` [Example 41, (3R,5R)-3-[1-Methyl-1-(6-trifluoromethyl-pyridin-3-yl)-ethylamino]-5-[3-(1,1,2,2-tetrafluoro-ethoxy)-phenyl]-1-(4-chloro-phenyl)-pyrrolidin-2-one], the antagonist dissociation constant (Kb) at hCB1 [1] was 0.91 nM; on Human CB2 [4] (setting [6]) it was above 14200 nM. Further, the “Bioavail. Rat” value in the data set “Bioavailability rat” was 36%. Besides, the “Bioavail. Dog” value in the data set “Bioavailability dog” came out at 47%.

Consider `CC(C)(N[C@H]1C[C@H](c2ccccc2)N(c2ccc(OC(F)(F)F)cc2)C1=O)c1ccc(C(F)(F)F)nc1` [Example 44, (3S,5R)-3-[1-Methyl-1-(6-trifluoromethyl-pyridin-3-yl)-ethylamino]-5-phenyl-1-(4-trifluoromethoxy-phenyl)-pyrrolidin-2-one], for which the antagonist equilibrium constant (Kb) on hCB1 [1] was found to be 72.7 nM; on Human CB2 [4] (setting [6]), 4030 nM.

Take `CC(C)(N[C@H]1C[C@@H](c2ccccc2)N(c2ccc(OC(F)(F)F)cc2)C1=O)c1ccc(C(F)(F)F)nc1` [Example 4, (3S,5S)-3-[1-Methyl-1-(6-trifluoromethyl-pyridin-3-yl)-ethylamino]-5-phenyl-1-(4-trifluoromethoxy-phenyl)-pyrrolidin-2-one tosylate]: the Kb at hCB1 [1] is 107 nM; on Human CB2 [4] (setting [6]) it was above 7230 nM.

In the case of `CC(F)(F)c1cccc([C@H]2C[C@@H](NC(C)(C)c3ccc(C(F)(F)F)nc3)C(=O)N2c2ccc(OC(F)(F)F)cc2)c1` [Example 32B, (3R,5R)-3-[1-Methyl-1-(6-trifluoromethyl-pyridin-3-yl)-ethyl-amino]-5-[3-(1,1-difluoro-ethyl)-phenyl]-1-(4-trifluoromethoxy-phenyl)-pyrrolidin-2-one], the antagonist dissociation constant (Kb) is 2.38 nM on hCB1 [1] and above 4000 nM on Human CB2 [4] (setting [6]).

Turning to `Cc1cccc([C@H]2C[C@@H](NC(C)(C)c3ccc(C(F)(F)F)nc3)C(=O)N2c2ccc(OC(F)(F)F)cc2)c1` [Example 1, (3R,5R)-3-[1-Methyl-1-(6-trifluoromethyl-pyridin-3-yl)-ethylamino]-5-(m-tolyl)-1-(4-trifluoromethoxy-phenyl)-pyrrolidin-2-one tosylate], the antagonist equilibrium constant (Kb) at hCB1 [1] came out at 0.91 nM; on Human CB2 [4] (setting [6]) it was 390 nM. For the same compound, in the data set “Bioavailability rat”, the “Bioavail. Rat” value stood at 7%. Further, in “Bioavailability dog”, the “Bioavail. Dog” value came out at 36%.

As for `CC(C)(N[C@@H]1C[C@H](c2cccc(OC(F)(F)C(F)F)c2)N(c2ccc(C(F)(F)F)cc2)C1=O)c1ccc(C(F)(F)F)nc1` [Example 40, (3R,5R)-3-[1-Methyl-1-(6-trifluoromethyl-pyridin-3-yl)-ethylamino]-5-[3-(1,1,2,2-tetrafluoro-ethoxy)-phenyl]-1-(4-trifluoromethyl-phenyl)-pyrrolidin-2-one], the antagonist equilibrium constant (Kb) was 0.71 nM at hCB1 [1] and above 6900 nM on Human CB2 [4] (setting [6]). Moreover, the “Bioavail. Rat” value in “Bioavailability rat” is reported as 77%. For the same compound, the “Bioavail. Dog” value in the data set “Bioavailability dog” was 38%.

The term Kb denotes the affinity of an antagonist, worked out from how it opposes an agonist. A word on the EC50: it is the concentration giving half of the maximal effect.
